{
  "source": "paper PMC8289861",
  "about": "(Scientific Reports, 2021)",
  "key": {"Caco-2 cells [1]": {"system": "Caco-2 cells"}, "[2]": {"parameters": "method as in PMID 25283090", "conditions": "in vivo studies; cited from earlier work"}, "Caco-2 cells [3]": {"system": "Caco-2 cells", "conditions": "cited from earlier work"}, "[4]": {"conditions": "cited from earlier work"}, "[5]": {"conditions": "cited from earlier work", "remark": "listed apart in the source"}, "[6]": {"system": "colon-derived human cells (NCM460 and HT-29MTX)", "conditions": "cited from earlier work"}},
  "data": [
    {"smiles": "[Cl][Hg][Cl]", "note": "[Hg, mercuric chloride]", "values": [
      {"measurement": "decrease in the permeability as measured by Papp", "setting": "Caco-2 cells [1]", "value": 8.2, "unit": "%"},
      {"measurement": "decrease of Papp values", "setting": "Caco-2 cells [1]", "value": 7.9, "unit": "%"},
      {"measurement": "absorption in vivo", "setting": "[2]", "value": "< 15", "unit": "%"},
      {"measurement": "cell retention", "setting": "Caco-2 cells [3]", "value": "49–69%"},
      {"measurement": "cellular accumulation", "setting": "Caco-2 cells [3]", "value": "21–51%"},
      {"measurement": "transport to the basal compartment", "setting": "Caco-2 cells [3]", "value": "3–14%"},
      {"measurement": "transport to the basolateral side", "setting": "Caco-2 cells [3]", "value": "9–20%"}
    ]},
    {"smiles": "CC(=O)[O-].CC(=O)[O-].[Pb+2]", "note": "[Pb, lead acetate]", "values": [
      {"measurement": "decrease in the permeability as measured by Papp", "setting": "Caco-2 cells [1]", "value": 7.9, "unit": "%"},
      {"measurement": "decrease of Papp values", "setting": "Caco-2 cells [1]", "value": 8.2, "unit": "%"},
      {"measurement": "Pb absorbed (associated and transported by Caco-2 cells)", "setting": "Caco-2 cells [3]; Caco-2", "value": 30, "unit": "%"},
      {"measurement": "Pb moved through the single layer", "setting": "Caco-2 cells [3]", "value": 3, "unit": "%"},
      {"measurement": "Pb retained by the cells", "setting": "Caco-2 cells [3]", "value": "approximately 27%"},
      {"measurement": "reduction of ML in the basolateral chamber", "setting": "Caco-2 cells [3]", "value": 50, "unit": "%"},
      {"measurement": "absolute bioavailability", "setting": "[4]; estimated from Pb concentration in blood", "value": 2.7, "unit": "%"},
      {"measurement": "fish meal Pb found in kidney", "setting": "[4]; kidney", "value": 1.4, "unit": "%"},
      {"measurement": "fish meal Pb found in liver", "setting": "[4]; liver", "value": 0.9, "unit": "%"}
    ]},
    {"smiles": "O=S(=O)(O)CC(S)CS", "note": "(stereo not shown) [DMPS, 2,3-dimercapto-1-propanesulfonic acid]", "values": [
      {"measurement": "Properties: water solubility", "setting": "[5]", "value": "C3H8O3S3 M.wt; 188.289g/mol Water soluble"}
    ]},
    {"smiles": "[Cl][Cd][Cl]", "note": "[CdCl2]", "values": [
      {"measurement": "Cd taken up (retained in the cells and transferred through cells) by Caco-2 cells", "setting": "Caco-2 cells [3]; Caco-2", "value": 25, "unit": "%"}
    ]},
    {"smiles": "CC(=O)[O-].CC(=O)[O-].[Cd+2]", "note": "[Cd, cadmium acetate]", "values": [
      {"measurement": "decrease in the permeability as measured by Papp", "setting": "Caco-2 cells [1]", "value": 6.3, "unit": "%"},
      {"measurement": "decrease of Papp values", "setting": "Caco-2 cells [1]", "value": 6.3, "unit": "%"},
      {"measurement": "Cd accumulated in the Caco-2 cells", "setting": "Caco-2 cells [3]; Caco-2", "value": "6-12%"},
      {"measurement": "lag time during which transport into the basolateral compartment was undetectable", "setting": "Caco-2 cells [3]", "value": "about 60 min"},
      {"measurement": "reduction of ML in the basolateral chamber", "setting": "Caco-2 cells [3]", "value": 90, "unit": "%"}
    ]},
    {"smiles": "O=[As]O[As]=O", "note": "(stereo not shown) [As, arsenic oxide (As III)]", "values": [
      {"measurement": "decrease in the permeability as measured by Papp", "setting": "Caco-2 cells [1]", "value": 7.5, "unit": "%"},
      {"measurement": "decrease of Papp values", "setting": "Caco-2 cells [1]", "value": 7.5, "unit": "%"},
      {"measurement": "Papp", "setting": "Caco-2 cells [3]; at 2 h, concentration 67 μM", "value": "4.6 ± 0.3 × 10^–6 cm/s"},
      {"measurement": "decrease of Papp values", "setting": "[6]", "value": 63, "unit": "%"}
    ]},
    {"smiles": "[CH3][Hg]", "note": "[CH3Hg]", "values": [
      {"measurement": "decrease in the cellular accumulation", "setting": "Caco-2 cells [3]", "value": "up to 55%"}
    ]}
  ]
}
